The source made the active and inactive calls. The rule behind the calls is not given here.
Assays:
[1] = target: Tyrosine-protein kinase ABL1 (Homo sapiens) (UniProt P00519); assay: Inhibition of phosphorylated form of Abl1 (unknown origin) at 1 uM relative to control
[2] = target: Tyrosine-protein kinase receptor UFO (Homo sapiens) (UniProt P30530); assay: Inhibition of Axl (unknown origin) at 75 uM relative to control
[3] = target: T1, Tyrosine-protein kinase Mer (Homo sapiens) (UniProt Q12866); assay: Inhibition of Mer (unknown origin) at 0.5 uM relative to control
T1 sequence (whole entry): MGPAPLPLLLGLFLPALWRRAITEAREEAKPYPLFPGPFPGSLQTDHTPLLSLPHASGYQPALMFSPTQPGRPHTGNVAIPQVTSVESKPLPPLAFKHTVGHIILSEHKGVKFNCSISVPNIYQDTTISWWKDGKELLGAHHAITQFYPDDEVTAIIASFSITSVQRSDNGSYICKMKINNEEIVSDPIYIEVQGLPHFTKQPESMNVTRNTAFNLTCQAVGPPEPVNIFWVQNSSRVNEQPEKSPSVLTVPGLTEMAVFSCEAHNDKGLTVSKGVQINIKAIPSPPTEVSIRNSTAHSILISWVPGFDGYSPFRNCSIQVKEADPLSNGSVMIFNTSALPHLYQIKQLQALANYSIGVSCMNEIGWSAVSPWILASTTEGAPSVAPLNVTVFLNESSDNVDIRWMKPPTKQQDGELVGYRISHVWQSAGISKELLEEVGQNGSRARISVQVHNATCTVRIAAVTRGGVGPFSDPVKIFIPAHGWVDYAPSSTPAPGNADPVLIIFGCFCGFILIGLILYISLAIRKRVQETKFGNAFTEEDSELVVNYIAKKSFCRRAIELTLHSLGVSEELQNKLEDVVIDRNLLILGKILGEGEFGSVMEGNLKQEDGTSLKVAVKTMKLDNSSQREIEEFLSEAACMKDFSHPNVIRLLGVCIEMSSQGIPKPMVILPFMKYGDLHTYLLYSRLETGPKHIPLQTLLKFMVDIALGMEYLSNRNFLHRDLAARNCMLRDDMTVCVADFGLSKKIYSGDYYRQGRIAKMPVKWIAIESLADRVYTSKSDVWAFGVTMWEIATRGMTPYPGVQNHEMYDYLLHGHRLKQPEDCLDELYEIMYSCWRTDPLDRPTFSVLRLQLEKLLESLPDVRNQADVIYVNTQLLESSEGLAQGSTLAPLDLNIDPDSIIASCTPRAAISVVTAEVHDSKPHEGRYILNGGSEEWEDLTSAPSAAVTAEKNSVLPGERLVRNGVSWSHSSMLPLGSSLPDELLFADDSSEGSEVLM

[4] = target: T2, Tyrosine-protein kinase receptor TYRO3 (Homo sapiens) (UniProt Q06418); assay: Inhibition of recombinant human Tyro3 kinase domain using poly (Glu, Ala, Tyr) as substrate at 75 uM after 1.5 hrs by ELISA relative to control
T2 sequence (whole entry): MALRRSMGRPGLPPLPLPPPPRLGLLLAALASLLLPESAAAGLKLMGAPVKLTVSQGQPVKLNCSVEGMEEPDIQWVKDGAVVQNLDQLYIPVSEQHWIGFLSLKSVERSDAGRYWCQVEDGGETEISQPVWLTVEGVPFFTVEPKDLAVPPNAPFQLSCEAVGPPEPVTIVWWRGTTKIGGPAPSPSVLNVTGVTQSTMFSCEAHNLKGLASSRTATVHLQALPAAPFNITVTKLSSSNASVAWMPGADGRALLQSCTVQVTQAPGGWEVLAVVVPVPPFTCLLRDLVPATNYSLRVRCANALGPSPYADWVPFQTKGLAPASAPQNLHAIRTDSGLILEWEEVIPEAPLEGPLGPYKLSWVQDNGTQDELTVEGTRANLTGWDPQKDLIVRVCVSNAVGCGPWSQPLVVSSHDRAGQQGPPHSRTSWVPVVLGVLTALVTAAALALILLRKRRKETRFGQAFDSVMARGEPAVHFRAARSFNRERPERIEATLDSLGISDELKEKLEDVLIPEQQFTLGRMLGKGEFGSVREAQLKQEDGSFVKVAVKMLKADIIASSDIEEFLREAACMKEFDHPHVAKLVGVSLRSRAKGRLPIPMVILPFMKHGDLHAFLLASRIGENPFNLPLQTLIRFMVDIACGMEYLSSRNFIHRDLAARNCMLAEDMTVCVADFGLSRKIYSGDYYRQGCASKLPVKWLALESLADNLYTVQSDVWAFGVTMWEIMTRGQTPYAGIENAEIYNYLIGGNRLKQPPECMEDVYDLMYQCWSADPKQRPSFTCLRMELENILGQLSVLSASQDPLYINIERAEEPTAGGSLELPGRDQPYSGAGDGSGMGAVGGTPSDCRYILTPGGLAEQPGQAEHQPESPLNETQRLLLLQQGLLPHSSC

[5] = target: T1, Tyrosine-protein kinase Mer (Homo sapiens); assay: Inhibition of Mer (unknown origin) at 75 uM relative to control
[6] = target: Tyrosine-protein kinase receptor UFO (Homo sapiens) (UniProt P30530); assay: Inhibition of Axl (unknown origin) at 0.5 uM relative to control
[7] = target: Tyrosine-protein kinase ABL1 (Homo sapiens) (UniProt P00519); assay: Inhibition of non-phosphorylated form of Abl1 (unknown origin) at 75 uM relative to control
[8] = target: T1, Tyrosine-protein kinase Mer (Homo sapiens); assay: Inhibition of Mer (unknown origin) at 1 uM relative to control
[9] = target: T2, Tyrosine-protein kinase receptor TYRO3 (Homo sapiens); assay: Inhibition of recombinant human Tyro3 kinase domain using poly (Glu, Ala, Tyr) as substrate at 1 uM after 1.5 hrs by ELISA relative to control
[10] = target: Tyrosine-protein kinase receptor UFO (Homo sapiens) (UniProt P30530); assay: Inhibition of Axl (unknown origin) at 1 uM relative to control
[11] = target: Fibroblast growth factor receptor 3 (Homo sapiens) (UniProt P22607); assay: Inhibition of FGFR3 (unknown origin) at 1 uM relative to control
Sequence of Fibroblast growth factor receptor 3 (Homo sapiens) (P22607 23-806 limits assumed): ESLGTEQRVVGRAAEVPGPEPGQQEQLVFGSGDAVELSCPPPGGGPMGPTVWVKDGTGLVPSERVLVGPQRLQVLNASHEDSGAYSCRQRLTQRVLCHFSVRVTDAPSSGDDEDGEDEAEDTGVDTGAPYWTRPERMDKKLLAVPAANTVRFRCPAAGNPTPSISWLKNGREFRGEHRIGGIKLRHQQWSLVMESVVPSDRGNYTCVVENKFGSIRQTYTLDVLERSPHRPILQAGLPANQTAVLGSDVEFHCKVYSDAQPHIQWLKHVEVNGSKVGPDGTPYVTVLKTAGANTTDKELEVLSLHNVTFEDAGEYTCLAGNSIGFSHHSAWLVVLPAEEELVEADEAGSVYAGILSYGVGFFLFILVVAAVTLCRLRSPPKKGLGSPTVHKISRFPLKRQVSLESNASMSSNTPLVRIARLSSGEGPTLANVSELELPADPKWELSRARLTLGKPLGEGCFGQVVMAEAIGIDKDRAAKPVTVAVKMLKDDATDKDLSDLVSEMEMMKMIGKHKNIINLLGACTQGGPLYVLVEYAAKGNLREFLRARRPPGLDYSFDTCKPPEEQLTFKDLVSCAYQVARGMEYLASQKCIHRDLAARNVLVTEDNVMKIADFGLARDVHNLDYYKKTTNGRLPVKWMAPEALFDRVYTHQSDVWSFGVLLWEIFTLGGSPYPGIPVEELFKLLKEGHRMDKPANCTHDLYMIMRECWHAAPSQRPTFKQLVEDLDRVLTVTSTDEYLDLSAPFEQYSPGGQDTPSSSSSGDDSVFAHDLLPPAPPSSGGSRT

[12] = target: T2, Tyrosine-protein kinase receptor TYRO3 (Homo sapiens); assay: Inhibition of recombinant human Tyro3 kinase domain using poly (Glu, Ala, Tyr) as substrate at 0.5 uM after 1.5 hrs by ELISA relative to control
[13] = target: Hepatocyte growth factor receptor (Homo sapiens) (UniProt P08581); assay: Inhibition of Met (unknown origin) at 1 uM relative to control
Sequence of Hepatocyte growth factor receptor (Homo sapiens) (P08581 whole entry): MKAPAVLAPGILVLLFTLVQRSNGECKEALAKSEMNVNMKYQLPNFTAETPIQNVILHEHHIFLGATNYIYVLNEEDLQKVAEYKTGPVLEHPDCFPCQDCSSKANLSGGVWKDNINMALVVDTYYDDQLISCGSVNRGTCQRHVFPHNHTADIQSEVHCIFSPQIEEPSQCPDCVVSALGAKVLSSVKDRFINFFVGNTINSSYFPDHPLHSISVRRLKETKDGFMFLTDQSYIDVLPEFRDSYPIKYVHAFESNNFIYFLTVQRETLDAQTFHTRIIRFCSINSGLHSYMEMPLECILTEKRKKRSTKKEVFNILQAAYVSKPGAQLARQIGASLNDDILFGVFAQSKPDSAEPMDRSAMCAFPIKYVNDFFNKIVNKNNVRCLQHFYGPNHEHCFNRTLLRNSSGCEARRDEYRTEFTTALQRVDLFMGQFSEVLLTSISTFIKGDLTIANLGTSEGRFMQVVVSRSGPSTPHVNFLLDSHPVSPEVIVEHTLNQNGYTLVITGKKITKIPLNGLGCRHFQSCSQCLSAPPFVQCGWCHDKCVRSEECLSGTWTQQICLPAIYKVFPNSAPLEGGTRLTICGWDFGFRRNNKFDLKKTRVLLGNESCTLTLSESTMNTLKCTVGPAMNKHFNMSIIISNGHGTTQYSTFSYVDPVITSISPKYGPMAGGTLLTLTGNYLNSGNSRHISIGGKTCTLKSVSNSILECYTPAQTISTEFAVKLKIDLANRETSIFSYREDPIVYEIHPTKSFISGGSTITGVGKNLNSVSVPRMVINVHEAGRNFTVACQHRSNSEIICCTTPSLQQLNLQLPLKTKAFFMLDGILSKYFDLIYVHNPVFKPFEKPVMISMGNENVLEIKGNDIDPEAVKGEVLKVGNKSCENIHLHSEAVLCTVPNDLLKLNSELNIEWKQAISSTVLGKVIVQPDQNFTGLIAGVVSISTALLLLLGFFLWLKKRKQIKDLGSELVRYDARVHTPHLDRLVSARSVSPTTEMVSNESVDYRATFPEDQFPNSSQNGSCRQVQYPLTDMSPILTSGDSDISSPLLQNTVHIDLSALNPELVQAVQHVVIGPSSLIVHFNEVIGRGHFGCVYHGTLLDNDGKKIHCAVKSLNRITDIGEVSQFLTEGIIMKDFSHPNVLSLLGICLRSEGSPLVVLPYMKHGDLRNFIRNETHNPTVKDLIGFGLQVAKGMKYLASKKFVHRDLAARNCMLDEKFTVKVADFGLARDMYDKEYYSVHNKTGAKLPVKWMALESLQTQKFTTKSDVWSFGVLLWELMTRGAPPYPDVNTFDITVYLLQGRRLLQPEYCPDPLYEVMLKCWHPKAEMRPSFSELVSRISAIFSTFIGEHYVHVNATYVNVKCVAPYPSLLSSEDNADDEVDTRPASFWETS

[14] = target: Fibroblast growth factor receptor 3 (Homo sapiens) (UniProt P22607); assay: Inhibition of FGFR3 (unknown origin) at 75 uM relative to control
[15] = target: Fibroblast growth factor receptor 3 (Homo sapiens) (UniProt P22607); assay: Inhibition of FGFR3 (unknown origin) at 0.5 uM relative to control
[16] = target: Tyrosine-protein kinase ABL1 (Homo sapiens) (UniProt P00519); assay: Inhibition of non-phosphorylated form of Abl1 (unknown origin) at 1 uM relative to control
[17] = target: T2, Tyrosine-protein kinase receptor TYRO3 (Homo sapiens); assay: Inhibition of recombinant human Tyro3 kinase domain using poly (Glu, Ala, Tyr) as substrate up to 50 uM after 1.5 hrs by ELISA
[18] = target: Tyrosine-protein kinase ABL1 (Homo sapiens) (UniProt P00519); assay: Inhibition of phosphorylated form of Abl1 (unknown origin) at 0.5 uM relative to control
[19] = target: Hepatocyte growth factor receptor (Homo sapiens) (UniProt P08581); assay: Inhibition of Met (unknown origin) at 75 uM relative to control
[20] = target: Tyrosine-protein kinase ABL1 (Homo sapiens) (UniProt P00519); assay: Inhibition of non-phosphorylated form of Abl1 (unknown origin) at 0.5 uM relative to control
[21] = target: Hepatocyte growth factor receptor (Homo sapiens) (UniProt P08581); assay: Inhibition of Met (unknown origin) at 0.5 uM relative to control
[22] = target: Tyrosine-protein kinase ABL1 (Homo sapiens) (UniProt P00519); assay: Inhibition of phosphorylated form of Abl1 (unknown origin) at 75 uM relative to control

Sequence of Tyrosine-protein kinase receptor UFO (Homo sapiens) (P30530 whole entry): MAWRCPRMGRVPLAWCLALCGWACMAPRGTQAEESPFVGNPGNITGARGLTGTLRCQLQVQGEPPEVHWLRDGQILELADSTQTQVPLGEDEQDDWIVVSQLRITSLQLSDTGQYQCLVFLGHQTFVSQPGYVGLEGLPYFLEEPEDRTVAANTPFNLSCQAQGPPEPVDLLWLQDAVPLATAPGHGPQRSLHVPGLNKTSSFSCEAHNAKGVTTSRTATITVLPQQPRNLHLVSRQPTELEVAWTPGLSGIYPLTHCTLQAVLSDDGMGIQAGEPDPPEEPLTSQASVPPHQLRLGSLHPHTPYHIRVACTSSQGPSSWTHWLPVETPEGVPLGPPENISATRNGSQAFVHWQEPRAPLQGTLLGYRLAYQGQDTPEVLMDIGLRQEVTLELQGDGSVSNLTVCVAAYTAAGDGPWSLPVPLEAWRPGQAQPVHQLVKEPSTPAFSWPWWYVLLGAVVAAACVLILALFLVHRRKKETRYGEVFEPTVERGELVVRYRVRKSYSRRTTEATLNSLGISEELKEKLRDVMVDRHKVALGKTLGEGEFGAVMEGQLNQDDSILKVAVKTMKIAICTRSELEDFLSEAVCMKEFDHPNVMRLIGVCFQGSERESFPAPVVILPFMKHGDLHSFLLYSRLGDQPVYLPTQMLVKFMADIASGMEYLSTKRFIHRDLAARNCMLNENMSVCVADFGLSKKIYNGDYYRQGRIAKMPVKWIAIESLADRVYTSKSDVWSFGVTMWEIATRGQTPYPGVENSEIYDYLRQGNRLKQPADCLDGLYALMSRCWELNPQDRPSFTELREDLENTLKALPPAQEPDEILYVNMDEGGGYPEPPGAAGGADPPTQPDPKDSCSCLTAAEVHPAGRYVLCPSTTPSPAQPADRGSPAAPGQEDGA
Sequence of Tyrosine-protein kinase ABL1 (Homo sapiens) (P00519 whole entry, the tested form may be a part): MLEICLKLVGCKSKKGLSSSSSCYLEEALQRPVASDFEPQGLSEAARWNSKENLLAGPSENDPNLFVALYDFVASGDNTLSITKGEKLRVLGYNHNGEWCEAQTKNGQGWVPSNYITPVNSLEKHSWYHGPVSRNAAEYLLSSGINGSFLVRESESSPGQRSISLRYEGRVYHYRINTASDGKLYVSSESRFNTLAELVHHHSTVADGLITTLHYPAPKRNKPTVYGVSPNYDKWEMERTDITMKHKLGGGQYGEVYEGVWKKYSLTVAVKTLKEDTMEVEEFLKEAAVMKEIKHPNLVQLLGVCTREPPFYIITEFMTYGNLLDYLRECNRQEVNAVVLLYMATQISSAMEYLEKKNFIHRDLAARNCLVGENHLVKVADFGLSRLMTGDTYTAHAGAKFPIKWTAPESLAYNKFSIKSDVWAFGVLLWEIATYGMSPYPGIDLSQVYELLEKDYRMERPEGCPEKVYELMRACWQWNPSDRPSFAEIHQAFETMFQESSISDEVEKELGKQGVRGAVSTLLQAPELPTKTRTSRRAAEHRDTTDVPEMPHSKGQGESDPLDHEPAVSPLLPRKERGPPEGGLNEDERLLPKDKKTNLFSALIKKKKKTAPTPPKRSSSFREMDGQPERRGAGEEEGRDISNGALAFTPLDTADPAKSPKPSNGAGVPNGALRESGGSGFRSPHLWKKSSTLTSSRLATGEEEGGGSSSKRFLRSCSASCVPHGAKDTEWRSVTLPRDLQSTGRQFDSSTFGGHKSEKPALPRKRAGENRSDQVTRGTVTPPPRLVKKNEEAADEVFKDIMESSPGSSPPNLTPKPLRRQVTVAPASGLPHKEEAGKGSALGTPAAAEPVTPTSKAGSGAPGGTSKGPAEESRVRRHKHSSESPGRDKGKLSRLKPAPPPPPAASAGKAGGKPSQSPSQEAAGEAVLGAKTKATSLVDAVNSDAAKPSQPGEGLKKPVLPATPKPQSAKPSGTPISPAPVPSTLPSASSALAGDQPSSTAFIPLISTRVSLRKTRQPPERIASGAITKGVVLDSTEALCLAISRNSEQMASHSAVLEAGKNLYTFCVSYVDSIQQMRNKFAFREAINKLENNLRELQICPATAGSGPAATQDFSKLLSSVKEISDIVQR

CCOc1ccn(-c2ccc(F)cc2)c(=O)c1C(=O)Nc1ccc(Oc2ccnc(N)c2Cl)c(F)c1
inhibition [1]: 35% | inhibition [2]: 99% | inhibition [3]: 98% | inhibition [4]: 92% | inhibition [5]: 95% | inhibition [6]: 99% | inhibition [7]: 100% | inhibition [8]: 98% | inhibition [9]: 99% | inhibition [10]: 99% | inhibition [11]: 0% | inhibition [12]: 96% | inhibition [13]: 95% | inhibition [14]: 0% | inhibition [15]: 0% | inhibition [16]: 98%

O=C(Nc1ccc(Oc2cc(On3nnc4ccccc43)ncn2)c(F)c1)c1cccn(-c2ccc(F)cc2F)c1=O
inhibition [17]: inactive

Nc1cc(Oc2ccc(NC(=O)c3cccn(-c4ccc(F)cc4)c3=O)cc2F)ncn1
inhibition [1]: 0% | inhibition [2]: 100% | inhibition [18]: 0% | inhibition [3]: 89% | inhibition [4]: 100% | inhibition [5]: 83% | inhibition [6]: 97% | inhibition [7]: 94% | inhibition [19]: 98% | inhibition [8]: 93% | inhibition [9]: 94% | inhibition [10]: 100% | inhibition [11]: 0% | inhibition [20]: 23% | inhibition [12]: 77% | inhibition [13]: 98% | inhibition [21]: 98% | inhibition [14]: 16% | inhibition [15]: 0% | inhibition [16]: 41% | inhibition [22]: 39%

Cc1cc(F)ccc1-n1cccc(C(=O)Nc2ccc(Oc3cc(N)ncn3)c(F)c2)c1=O
inhibition [1]: 0% | inhibition [2]: 100% | inhibition [18]: 0% | inhibition [3]: 53% | inhibition [4]: 100% | inhibition [5]: 99% | inhibition [6]: 93% | inhibition [7]: 98% | inhibition [19]: 99% | inhibition [8]: 65% | inhibition [9]: 65% | inhibition [10]: 98% | inhibition [11]: 0% | inhibition [20]: 10% | inhibition [12]: 48% | inhibition [13]: 100% | inhibition [21]: 99% | inhibition [14]: 6% | inhibition [15]: 0% | inhibition [16]: 27% | inhibition [22]: 47%

COc1ccc(-n2cccc(C(=O)Nc3ccc(Oc4cc(On5nnc6ccccc65)ncn4)c(F)c3)c2=O)c(F)c1
inhibition [17]: inactive

O=C(Nc1ccc(Oc2cc(On3nnc4ccccc43)ncn2)c(F)c1)c1cccn(-c2ccc(F)cc2)c1=O
inhibition [17]: inactive

CNc1cc(Oc2ccc(NC(=O)c3cccn(-c4ccc(F)cc4)c3=O)cc2F)ncn1
inhibition [17]: inactive

O=C(Nc1ccc(Oc2ncnc3[nH]cnc23)c(F)c1)c1cccn(-c2ccc(F)cc2)c1=O
inhibition [1]: 0% | inhibition [2]: 98% | inhibition [18]: 0% | inhibition [3]: 77% | inhibition [4]: 100% | inhibition [6]: 98% | inhibition [7]: 66% | inhibition [19]: 95% | inhibition [8]: 93% | inhibition [9]: 94% | inhibition [10]: 100% | inhibition [11]: 0% | inhibition [20]: 17% | inhibition [12]: 73% | inhibition [13]: 98% | inhibition [21]: 93% | inhibition [14]: 16% | inhibition [15]: 0% | inhibition [16]: 32% | inhibition [22]: 20%

O=C(Nc1ccc(Oc2cc(NCCN3CCOCC3)ncn2)c(F)c1)c1cccn(-c2ccc(F)cc2)c1=O
inhibition [1]: 0% | inhibition [2]: 100% | inhibition [18]: 1% | inhibition [3]: 90% | inhibition [4]: 75% | inhibition [5]: 49% | inhibition [6]: 95% | inhibition [7]: 71% | inhibition [19]: 99% | inhibition [8]: 93% | inhibition [9]: 63% | inhibition [10]: 99% | inhibition [11]: 0% | inhibition [20]: 12% | inhibition [12]: 50% | inhibition [13]: 99% | inhibition [21]: 98% | inhibition [14]: 0% | inhibition [15]: 0% | inhibition [16]: 12% | inhibition [22]: 13%

COc1ccc(-n2cccc(C(=O)Nc3ccc(Oc4cc(N)ncn4)c(F)c3)c2=O)c(F)c1
inhibition [17]: inactive

Cc1cc(F)ccc1-n1cccc(C(=O)Nc2ccc(Oc3cc(On4nnc5ccccc54)ncn3)c(F)c2)c1=O
inhibition [17]: inactive

Nc1cc(Oc2ccc(NC(=O)c3cccn(-c4ccc(F)c(F)c4)c3=O)cc2F)ncn1
inhibition [17]: inactive

O=C(Nc1ccc(Oc2cc(On3nnc4ccccc43)ncn2)c(F)c1)c1cccn(-c2ccc(F)c(F)c2)c1=O
inhibition [17]: inactive

Nc1nccc(Oc2ccc(NC(=O)c3cccn(-c4ccc(F)cc4)c3=O)cc2F)n1
inhibition [1]: 0% | inhibition [2]: 100% | inhibition [18]: 0% | inhibition [3]: 94% | inhibition [6]: 96% | inhibition [7]: 32% | inhibition [19]: 99% | inhibition [8]: 95% | inhibition [9]: 75% | inhibition [10]: 100% | inhibition [11]: 0% | inhibition [20]: 27% | inhibition [12]: 61% | inhibition [13]: 100% | inhibition [21]: 99% | inhibition [14]: 12% | inhibition [15]: 0% | inhibition [16]: 50% | inhibition [22]: 30%

COc1ccc(CNc2nccc(Oc3ccc(NC(=O)c4cccn(-c5ccc(F)cc5)c4=O)cc3F)n2)cc1
inhibition [17]: inactive

COc1ccc(CNc2cc(Oc3ccc(NC(=O)c4cccn(-c5ccc(F)cc5)c4=O)cc3F)ncn2)cc1
inhibition [17]: inactive

CNc1nccc(Oc2ccc(NC(=O)c3cccn(-c4ccc(F)cc4)c3=O)cc2F)n1
inhibition [17]: inactive

O=C(Nc1ccc(Oc2cc(Cl)ncn2)c(F)c1)c1cccn(-c2ccc(F)cc2)c1=O
inhibition [17]: inactive
